Source: PubChem BioAssay AID1963959 (Molecular Pharmacology Branch, DTP, NCI, 2024)
Several values for one entry are separate records, joined by “and”; a condition that tells them apart may be missing. Equal entries are not always repeated.

System: T-47D spheroids with HUVEC/MSC, viability
Test: Anticancer human tumor T-47D cell line growth inhibition [PI3K];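 further: spheroids exposed to agents for seven days before reading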;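 on viability, T/C: percent of DMSO vehicle control luminescence so 100% = untreated growth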
Details: for viability, T/C: stronger effect = lower value
Outline: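 Multi-cell spheroids combine tumor cells with HUVEC and human MSCs, treated with targeted agents alone or with inavolisib, alpelisib, duvelisib or copanlisib. Concentrations fall in half-log steps from at or near clinical Cmax, or from 10 microM where Cmax is unknown; viability read-out.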

[1] = curve of first compound, second compound 0.00316 µM
[2] = curve of first compound, second compound 0.01 µM
[3] = curve of first compound, second compound 0.0316 µM
[4] = curve of first compound, second compound 0.1 µM
[5] = curve of first compound, second compound 0.316 µM
[6] = curve of first compound, second compound 1 µM
[7] = second compound 0.00316 µM, first compound 0.0316 µM
[8] = second compound 0.00316 µM, first compound 0.1 µM
[9] = second compound 0.00316 µM, first compound 0.316 µM
[10] = second compound 0.00316 µM, first compound 1 µM
[11] = second compound 0.00316 µM, first compound 3.16 µM
[12] = second compound 0.00316 µM, first compound 10 µM
[13] = second compound 0.01 µM, first compound 0.0316 µM
[14] = second compound 0.01 µM, first compound 0.1 µM
[15] = second compound 0.01 µM, first compound 0.316 µM
[16] = second compound 0.01 µM, first compound 1 µM
[17] = second compound 0.01 µM, first compound 3.16 µM
[18] = second compound 0.01 µM, first compound 10 µM
[19] = second compound 0.0316 µM, first compound 0.0316 µM
[20] = second compound 0.0316 µM, first compound 0.1 µM
[21] = second compound 0.0316 µM, first compound 0.316 µM
[22] = second compound 0.0316 µM, first compound 1 µM
[23] = second compound 0.0316 µM, first compound 3.16 µM
[24] = second compound 0.0316 µM, first compound 10 µM
[25] = second compound 0.1 µM, first compound 0.0316 µM
[26] = second compound 0.1 µM, first compound 0.1 µM
[27] = second compound 0.1 µM, first compound 0.316 µM
[28] = second compound 0.1 µM, first compound 1 µM
[29] = second compound 0.1 µM, first compound 3.16 µM
[30] = second compound 0.1 µM, first compound 10 µM
[31] = second compound 0.316 µM, first compound 0.0316 µM
[32] = second compound 0.316 µM, first compound 0.1 µM
[33] = second compound 0.316 µM, first compound 0.316 µM
[34] = second compound 0.316 µM, first compound 1 µM
[35] = second compound 0.316 µM, first compound 3.16 µM
[36] = second compound 0.316 µM, first compound 10 µM
[37] = second compound 1 µM, first compound 0.0316 µM
[38] = second compound 1 µM, first compound 0.1 µM
[39] = second compound 1 µM, first compound 0.316 µM
[40] = second compound 1 µM, first compound 1 µM
[41] = second compound 1 µM, first compound 3.16 µM
[42] = second compound 1 µM, first compound 10 µM

CNC(=O)c1ccc(N2C(=S)N(c3ccc(C#N)c(C(F)(F)F)c3)C(=O)C2(C)C)cc1F + COc1c(OCCCN2CCOCC2)ccc2c3n(c(=NC(=O)c4cnc(N)nc4)nc12)CCN3
IC50 [1]: > 10 µM
IC50 [2]: > 10 µM
IC50 [3]: > 10 µM
IC50 [4]: < 0.0316 µM
IC50 [5]: < 0.0316 µM
IC50 [6]: < 0.0316 µM
viability, T/C [7]: 122%
viability, T/C [8]: 84.3%
viability, T/C [9]: 87.8%
viability, T/C [10]: 81.1%
viability, T/C [11]: 98.8%
viability, T/C [12]: 86.5%
viability, T/C [13]: 102%
viability, T/C [14]: 90.3%
viability, T/C [15]: 105%
viability, T/C [16]: 104%
viability, T/C [17]: 81.3%
viability, T/C [18]: 91.2%
viability, T/C [19]: 72.3%
viability, T/C [20]: 80%
viability, T/C [21]: 72.1%
viability, T/C [22]: 69.1%
viability, T/C [23]: 64.4%
viability, T/C [24]: 62%
viability, T/C [25]: 37.6%
viability, T/C [26]: 44.8%
viability, T/C [27]: 40%
viability, T/C [28]: 46%
viability, T/C [29]: 37.2%
viability, T/C [30]: 43.8%
viability, T/C [31]: 18.9%
viability, T/C [32]: 21.8%
viability, T/C [33]: 16.7%
viability, T/C [34]: 19.6%
viability, T/C [35]: 18.1%
viability, T/C [36]: 14.9%
viability, T/C [37]: 5.78%
viability, T/C [38]: 6.91%
viability, T/C [39]: 7.72%
viability, T/C [40]: 3.81%
viability, T/C [41]: 3.1%
viability, T/C [42]: 4.67%

CC1(C)CCC(Nc2ncc(C(F)(F)F)c(-c3c[nH]c4c(P(C)(C)=O)c(C#N)ccc34)n2)CN1 (configuration not stated) + CC(Nc1ncnc2nc[nH]c12)c1cc2cccc(Cl)c2c(=O)n1-c1ccccc1
IC50 [3]: > 10 µM
IC50 [4]: > 10 µM
IC50 [5]: > 10 µM
IC50 [6]: > 10 µM
IC50 (curve of first compound, second compound 3.16 µM): > 10 µM
IC50 (curve of first compound, second compound 10 µM): 4.1 µM
viability, T/C [19]: 73.3%
viability, T/C [20]: 62.5%
viability, T/C [21]: 67.2%
viability, T/C [22]: 71.9%
viability, T/C [23]: 76.9%
viability, T/C [24]: 48.4%
viability, T/C [25]: 72.9%
viability, T/C [26]: 69.9%
viability, T/C [27]: 69.7%
viability, T/C [28]: 59.8%
viability, T/C [29]: 78.2%
viability, T/C [30]: 48.6%
viability, T/C [31]: 60.4%
viability, T/C [32]: 70.9%
viability, T/C [33]: 66%
viability, T/C [34]: 64.6%
viability, T/C [35]: 75.5%
viability, T/C [36]: 51%
viability, T/C [37]: 62.2%
viability, T/C [38]: 63.5%
viability, T/C [39]: 69.6%
viability, T/C [40]: 57.6%
viability, T/C [41]: 64.2%
viability, T/C [42]: 47.1%
viability, T/C (second compound 3.16 µM, first compound 0.0316 µM): 57.5%
viability, T/C (second compound 3.16 µM, first compound 0.1 µM): 60.3%
viability, T/C (second compound 3.16 µM, first compound 0.316 µM): 66.4%
viability, T/C (second compound 3.16 µM, first compound 1 µM): 60%
viability, T/C (second compound 3.16 µM, first compound 3.16 µM): 66.8%
viability, T/C (second compound 3.16 µM, first compound 10 µM): 40.5%
viability, T/C (second compound 10 µM, first compound 0.0316 µM): 47.4%
viability, T/C (second compound 10 µM, first compound 0.1 µM): 60.1%
viability, T/C (second compound 10 µM, first compound 0.316 µM): 64.6%
viability, T/C (second compound 10 µM, first compound 1 µM): 51.7%
viability, T/C (second compound 10 µM, first compound 3.16 µM): 57.2%
viability, T/C (second compound 10 µM, first compound 10 µM): 29%

C#Cc1c(F)ccc2cc(O)cc(-c3ncc4c(N5CC6CCC(C5)N6)nc(OCC56CCCN5CC(F)C6)nc4c3F)c12 (configuration not stated) + COc1c(OCCCN2CCOCC2)ccc2c3n(c(=NC(=O)c4cnc(N)nc4)nc12)CCN3
IC50 [1]: > 10 µM
IC50 [2]: > 10 µM
IC50 [3]: > 10 µM
IC50 [4]: < 0.0316 µM
IC50 [5]: < 0.0316 µM
IC50 [6]: < 0.0316 µM
viability, T/C [7]: 102%
viability, T/C [8]: 93.1%
viability, T/C [9]: 93%
viability, T/C [10]: 82.5%
viability, T/C [11]: 116%
viability, T/C [12]: 109%
viability, T/C [13]: 95.1%
viability, T/C [14]: 99.9%
viability, T/C [15]: 105%
viability, T/C [16]: 99.5%
viability, T/C [17]: 114%
viability, T/C [18]: 111%
viability, T/C [19]: 80.5%
viability, T/C [20]: 78.8%
viability, T/C [21]: 79.8%
viability, T/C [22]: 84.8%
viability, T/C [23]: 79.2%
viability, T/C [24]: 87.5%
viability, T/C [25]: 45.1%
viability, T/C [26]: 46.4%
viability, T/C [27]: 46.8%
viability, T/C [28]: 49.2%
viability, T/C [29]: 39.6%
viability, T/C [30]: 49.5%
viability, T/C [31]: 20.2%
viability, T/C [32]: 14.5%
viability, T/C [33]: 20.5%
viability, T/C [34]: 22.3%
viability, T/C [35]: 22.3%
viability, T/C [36]: 27.1%
viability, T/C [37]: 7.11%
viability, T/C [38]: 6.61%
viability, T/C [39]: 8.19%
viability, T/C [40]: 8.13%
viability, T/C [41]: 5.78%
viability, T/C [42]: 9.52%

Cn1nccc1Nc1nccc(-c2ccn(C(CO)c3ccc(Cl)c(F)c3)c(=O)c2)n1 (configuration not stated)
viability, T/C (compound 0.0316 µM): 103% [middle of 4 runs]
viability, T/C (compound 0.1 µM): 93.2% [middle of 4 runs]
viability, T/C (compound 0.316 µM): 105% [middle of 4 runs]
viability, T/C (compound 3.16 µM): 99.5% [middle of 4 runs]
viability, T/C (compound 10 µM): 82.5% and 92.7% and 101% (2×)
IC50 (curve of compound): > 10 µM
